The source made the active and inactive calls. The rule behind the calls is not given here.
Molecular target: T1, fMet-Leu-Phe receptor (Homo sapiens, UniProt P21462)
T1 sequence (P21462 whole entry): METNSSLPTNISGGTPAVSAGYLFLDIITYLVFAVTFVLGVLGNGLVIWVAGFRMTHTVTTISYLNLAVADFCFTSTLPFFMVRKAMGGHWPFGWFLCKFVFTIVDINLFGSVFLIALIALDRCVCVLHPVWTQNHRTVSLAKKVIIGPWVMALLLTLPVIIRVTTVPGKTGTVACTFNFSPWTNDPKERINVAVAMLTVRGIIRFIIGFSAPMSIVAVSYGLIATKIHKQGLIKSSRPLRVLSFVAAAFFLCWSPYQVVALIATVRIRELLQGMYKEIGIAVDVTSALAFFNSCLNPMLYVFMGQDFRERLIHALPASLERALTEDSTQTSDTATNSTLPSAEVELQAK
Experiment: Antagonist activity at human FPR1 in human neutrophils assessed as inhibition of fMLF-stimulated intracellular calcium mobilisation by FLIPR assay
Type: functional, cell-based
Settings: not given

Row | Compound | IC50 [µM]
1 | Cc1ccc(S(=O)(=O)Nc2c(C(=O)NC(C)C)c(C)nn2-c2ccccc2)cc1 | 6.31
2 | CCC(CC)NC(=O)c1nnn(-c2ccccc2)c1NS(=O)(=O)c1ccc(C)cc1 | 3.98
3 | Cc1nn(-c2ccc(F)cc2)c(NS(=O)(=O)c2cccnc2)c1C(=O)N[C@@H](C)C(C)(C)C | 1
4 | Cc1ccc(S(=O)(=O)Nc2c(C(=O)N[C@@H](C)C(C)(C)C)c(C)nn2-c2ccccc2)cc1 | 0.0794
5 | CCC(CC)NC(=O)c1cnn(-c2ccccn2)c1NS(=O)(=O)c1ccc(C)cc1 | 20
6 | Cc1ccc(S(=O)(=O)Nc2c(C(=O)NCC(C)(C)C)c(C)nn2-c2ccccc2)cc1 | 2
7 | Cc1ccc(S(=O)(=O)Nc2c(C(=O)N[C@@H](C)C(C)(C)C)c(C(F)(F)F)nn2-c2ccccc2)cc1 | 0.0251
8 | Cc1ccc(S(=O)(=O)Nc2c(C(=O)N(C)C3CCCCC3)cnn2-c2ccccc2)cc1 | 1.58
9 | Cc1ccc(S(=O)(=O)Nc2c(C(=O)NC3CCOCC3)c(C)nn2-c2ccccc2)cc1 | 5.01
10 | Cc1ccc(S(=O)(=O)Nc2c(C(=O)NC3CCCCC3)cnn2-c2ccccc2)cc1 | 3.98
11 | Cc1ccc(S(=O)(=O)Nc2c(C(=O)N[C@H](C)C(C)(C)C)c(C)nn2-c2ccccc2)cc1 | 0.501
12 | Cc1ccc(S(=O)(=O)Nc2c(C(=O)N(C)C3CCCCC3)c(C)nn2-c2ccccc2)cc1 | 3.16
13 | CCC(CC)NC(=O)c1cnn(-c2ccc(C#N)cc2)c1NS(=O)(=O)c1ccc(C)cc1 | 15.8
14 | CCC(CC)NC(=O)c1cnn(-c2ccccc2)c1NS(=O)(=O)c1ccccc1C | 6.31
15 | CCCC(CC)NC(=O)c1cnn(-c2ccccc2)c1NS(=O)(=O)c1ccc(C)cc1 (stereo not drawn) | 0.316
16 | CCC(CC)NC(=O)c1cnn(-c2ccccc2Cl)c1NS(=O)(=O)c1ccc(C)cc1 | 10
17 | Cc1nn(-c2ccccc2)c(NS(=O)(=O)C2CCCCC2)c1C(=O)N[C@@H](C)C(C)(C)C | 1
18 | CCC(CC)NC(=O)c1cnn(C(C)C)c1NS(=O)(=O)c1ccc(C)cc1 | 10
19 | CCC(CC)NC(=O)c1ncn(-c2ccccc2)c1NS(=O)(=O)c1ccc(C)cc1 | 1.58
20 | CCC(CC)NC(=O)c1cnn(-c2ccccc2)c1NS(=O)(=O)c1ccccc1 | 5.01

Molecular target: T1, fMet-Leu-Phe receptor
Experiment: Antagonist activity at FPR1 in whole blood assessed as CD11 level
Type: functional, tissue-based
Settings: read-out: pA2 (converted)

Row | Compound | Kb [µM]
21 | Cc1ccc(S(=O)(=O)Nc2c(C(=O)N[C@@H](C)C(C)(C)C)c(C)nn2-c2ccccc2)cc1 | 0.398

Tested on: not listed separately
Experiment: Lipophilicity, log D of the compound
Type: physicochemical
Settings: octanol/water

Row | Compound | logD
22 | Cc1ccc(S(=O)(=O)Nc2c(C(=O)N[C@@H](C)C(C)(C)C)c(C)nn2-c2ccccc2)cc1 | 1.4

Tested on: not listed separately
Experiment: Solubility of the compound
Type: physicochemical
Settings: not given

Row | Compound | solubility [µM]
23 | Cc1ccc(S(=O)(=O)Nc2c(C(=O)N[C@@H](C)C(C)(C)C)c(C)nn2-c2ccccc2)cc1 | > 1000

Tested on: not listed separately
Experiment: Fraction unbound in human
Type: ADME, organism-based
Settings: in vivo

Row | Compound | fraction unbound
24 | Cc1ccc(S(=O)(=O)Nc2c(C(=O)N[C@@H](C)C(C)(C)C)c(C)nn2-c2ccccc2)cc1 | 0.011

Tested on: not listed separately
Experiment: Fraction unbound in rat
Type: ADME, organism-based
Settings: in vivo

Row | Compound | fraction unbound
25 | Cc1ccc(S(=O)(=O)Nc2c(C(=O)N[C@@H](C)C(C)(C)C)c(C)nn2-c2ccccc2)cc1 | 0.042

Tested on: not listed separately
Experiment: Intrinsic clearance in human microsomes
Type: ADME, Microsome
Settings: not given

Row | Compound | microsomal CLint [µL/min/mg]
26 | Cc1ccc(S(=O)(=O)Nc2c(C(=O)N[C@@H](C)C(C)(C)C)c(C)nn2-c2ccccc2)cc1 | 40

Tested on: not listed separately
Experiment: Intrinsic clearance in Sprague-Dawley rat microsomes
Type: ADME, Microsome
Settings: not given

Row | Compound | microsomal CLint [µL/min/mg]
27 | Cc1ccc(S(=O)(=O)Nc2c(C(=O)N[C@@H](C)C(C)(C)C)c(C)nn2-c2ccccc2)cc1 | 53

Tested on: not listed separately
Experiment: Intrinsic clearance in human hepatocytes assessed per 10 '6 cells
Type: ADME, cell-based, Liver, Hepatocyte
Settings: not given

Row | Compound | hepatocyte CLint [µL/min/1e6 cells]
28 | Cc1ccc(S(=O)(=O)Nc2c(C(=O)N[C@@H](C)C(C)(C)C)c(C)nn2-c2ccccc2)cc1 | 7

Tested on: not listed separately
Experiment: Intrinsic clearance in Sprague-Dawley rat hepatocytes assessed per 10 '6 cells
Type: ADME, cell-based, Liver, Hepatocyte
Settings: not given

Row | Compound | hepatocyte CLint [µL/min/1e6 cells]
29 | Cc1ccc(S(=O)(=O)Nc2c(C(=O)N[C@@H](C)C(C)(C)C)c(C)nn2-c2ccccc2)cc1 | 12

Tested on: not listed separately
Experiment: Chemical stability of the compound assessed as half life
Type: physicochemical
Settings: not given

Row | Compound | half-life [days]
30 | Cc1ccc(S(=O)(=O)Nc2c(C(=O)N[C@@H](C)C(C)(C)C)c(C)nn2-c2ccccc2)cc1 | > 41.7

Molecular target: T2, Cytochrome P450 1A2 (Homo sapiens, UniProt P05177)
T2 sequence (P05177 whole entry): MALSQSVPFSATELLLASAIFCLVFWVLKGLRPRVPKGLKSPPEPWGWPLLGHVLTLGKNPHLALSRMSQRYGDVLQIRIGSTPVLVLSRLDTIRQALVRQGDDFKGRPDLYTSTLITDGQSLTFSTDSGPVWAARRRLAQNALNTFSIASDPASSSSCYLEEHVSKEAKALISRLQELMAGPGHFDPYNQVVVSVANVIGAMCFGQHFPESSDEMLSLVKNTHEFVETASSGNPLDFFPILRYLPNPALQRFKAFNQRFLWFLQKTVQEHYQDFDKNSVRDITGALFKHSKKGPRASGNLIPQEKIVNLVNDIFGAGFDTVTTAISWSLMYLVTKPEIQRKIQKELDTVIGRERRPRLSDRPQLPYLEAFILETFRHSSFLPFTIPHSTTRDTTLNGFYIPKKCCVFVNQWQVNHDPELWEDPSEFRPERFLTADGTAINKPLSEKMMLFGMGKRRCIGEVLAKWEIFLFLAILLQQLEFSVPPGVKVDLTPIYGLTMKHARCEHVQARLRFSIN
Experiment: Inhibition of CYP1A2
Type: ADME
Settings: not given

Row | Compound | IC50 [µM]
31 | Cc1ccc(S(=O)(=O)Nc2c(C(=O)N[C@@H](C)C(C)(C)C)c(C)nn2-c2ccccc2)cc1 | > 10

Molecular target: Cytochrome P450 2C9 (Homo sapiens, UniProt P11712)
Sequence (P11712 whole entry): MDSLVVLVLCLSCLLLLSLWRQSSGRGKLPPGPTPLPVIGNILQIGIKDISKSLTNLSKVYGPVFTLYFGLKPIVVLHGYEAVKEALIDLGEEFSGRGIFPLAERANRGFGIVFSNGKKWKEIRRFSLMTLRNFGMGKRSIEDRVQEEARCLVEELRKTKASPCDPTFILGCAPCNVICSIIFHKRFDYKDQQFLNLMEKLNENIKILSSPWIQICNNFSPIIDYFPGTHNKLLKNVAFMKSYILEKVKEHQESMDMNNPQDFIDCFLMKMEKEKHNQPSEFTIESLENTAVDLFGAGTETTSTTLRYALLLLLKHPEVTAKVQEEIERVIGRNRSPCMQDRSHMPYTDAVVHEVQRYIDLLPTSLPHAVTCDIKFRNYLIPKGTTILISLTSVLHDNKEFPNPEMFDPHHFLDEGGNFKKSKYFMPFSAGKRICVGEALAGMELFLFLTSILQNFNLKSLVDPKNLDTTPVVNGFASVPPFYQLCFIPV
Experiment: Inhibition of CYP2C9
Type: ADME
Settings: not given

Row | Compound | IC50 [µM]
32 | Cc1ccc(S(=O)(=O)Nc2c(C(=O)N[C@@H](C)C(C)(C)C)c(C)nn2-c2ccccc2)cc1 | > 10

Molecular target: Cytochrome P450 2C19 (Homo sapiens, UniProt P33261)
Sequence (P33261 whole entry): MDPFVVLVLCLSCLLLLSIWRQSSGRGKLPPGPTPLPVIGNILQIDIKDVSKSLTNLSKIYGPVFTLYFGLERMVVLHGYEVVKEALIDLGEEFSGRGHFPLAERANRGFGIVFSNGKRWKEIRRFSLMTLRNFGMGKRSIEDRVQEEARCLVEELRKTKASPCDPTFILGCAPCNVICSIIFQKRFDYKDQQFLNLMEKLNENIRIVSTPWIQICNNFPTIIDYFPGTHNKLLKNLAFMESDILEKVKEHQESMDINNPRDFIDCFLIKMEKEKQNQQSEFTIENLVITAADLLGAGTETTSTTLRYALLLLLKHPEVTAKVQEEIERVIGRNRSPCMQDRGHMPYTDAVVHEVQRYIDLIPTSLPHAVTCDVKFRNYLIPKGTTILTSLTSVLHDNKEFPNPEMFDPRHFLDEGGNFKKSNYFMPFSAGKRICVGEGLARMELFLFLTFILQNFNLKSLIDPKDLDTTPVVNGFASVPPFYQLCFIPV
Experiment: Inhibition of CYP2C19
Type: ADME
Settings: not given

Row | Compound | IC50 [µM]
33 | Cc1ccc(S(=O)(=O)Nc2c(C(=O)N[C@@H](C)C(C)(C)C)c(C)nn2-c2ccccc2)cc1 | > 10

Molecular target: Cytochrome P450 2D6 (Homo sapiens, UniProt P10635)
Sequence (P10635 whole entry): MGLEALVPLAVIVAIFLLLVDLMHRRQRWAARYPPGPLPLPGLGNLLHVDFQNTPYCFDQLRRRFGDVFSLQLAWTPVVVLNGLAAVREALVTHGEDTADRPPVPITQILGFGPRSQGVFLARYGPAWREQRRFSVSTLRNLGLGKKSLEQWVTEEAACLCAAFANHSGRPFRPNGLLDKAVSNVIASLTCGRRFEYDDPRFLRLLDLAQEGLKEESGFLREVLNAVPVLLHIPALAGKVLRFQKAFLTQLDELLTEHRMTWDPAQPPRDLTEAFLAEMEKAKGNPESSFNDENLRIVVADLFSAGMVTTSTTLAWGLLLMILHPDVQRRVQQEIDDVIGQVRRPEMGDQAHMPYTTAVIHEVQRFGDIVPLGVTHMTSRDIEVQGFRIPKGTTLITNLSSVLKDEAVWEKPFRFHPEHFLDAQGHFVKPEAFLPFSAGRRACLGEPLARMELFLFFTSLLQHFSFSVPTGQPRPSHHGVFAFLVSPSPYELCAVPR
Experiment: Inhibition of CYP2D6
Type: ADME
Settings: not given

Row | Compound | IC50 [µM]
34 | Cc1ccc(S(=O)(=O)Nc2c(C(=O)N[C@@H](C)C(C)(C)C)c(C)nn2-c2ccccc2)cc1 | > 10

Molecular target: Cytochrome P450 3A4 (Homo sapiens, UniProt P08684)
Sequence (P08684 whole entry): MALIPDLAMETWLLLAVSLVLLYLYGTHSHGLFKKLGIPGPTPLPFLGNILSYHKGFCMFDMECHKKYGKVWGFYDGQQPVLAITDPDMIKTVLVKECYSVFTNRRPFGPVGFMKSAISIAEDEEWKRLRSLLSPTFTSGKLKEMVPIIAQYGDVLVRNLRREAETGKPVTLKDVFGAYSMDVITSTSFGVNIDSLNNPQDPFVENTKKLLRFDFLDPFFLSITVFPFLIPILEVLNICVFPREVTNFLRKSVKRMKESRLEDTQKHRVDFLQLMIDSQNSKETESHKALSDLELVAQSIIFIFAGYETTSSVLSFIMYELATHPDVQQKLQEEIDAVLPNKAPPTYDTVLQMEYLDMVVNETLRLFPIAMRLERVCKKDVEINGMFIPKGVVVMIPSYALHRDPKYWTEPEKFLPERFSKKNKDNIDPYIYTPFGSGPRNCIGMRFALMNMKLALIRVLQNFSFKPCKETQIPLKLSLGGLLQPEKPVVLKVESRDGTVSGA
Experiment: Inhibition of CYP3A4
Type: ADME
Settings: not given

Row | Compound | IC50 [µM]
35 | Cc1ccc(S(=O)(=O)Nc2c(C(=O)N[C@@H](C)C(C)(C)C)c(C)nn2-c2ccccc2)cc1 | > 10

Molecular target: T3, fMet-Leu-Phe receptor (Mus musculus) (UniProt P33766)
T3 sequence (whole entry): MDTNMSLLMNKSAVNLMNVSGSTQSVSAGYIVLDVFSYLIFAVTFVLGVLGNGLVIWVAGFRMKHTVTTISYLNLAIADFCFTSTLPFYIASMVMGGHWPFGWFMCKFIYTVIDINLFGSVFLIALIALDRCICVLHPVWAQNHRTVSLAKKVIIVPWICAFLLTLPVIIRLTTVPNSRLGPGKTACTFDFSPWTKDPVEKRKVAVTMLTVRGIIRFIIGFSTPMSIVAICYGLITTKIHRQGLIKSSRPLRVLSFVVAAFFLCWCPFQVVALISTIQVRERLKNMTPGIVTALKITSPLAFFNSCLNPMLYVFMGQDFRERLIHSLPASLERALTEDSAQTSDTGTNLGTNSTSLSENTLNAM
Experiment: Inhibition of mouse FPR1
Settings: not given

Row | Compound | inhibition
36 | Cc1ccc(S(=O)(=O)Nc2c(C(=O)N[C@@H](C)C(C)(C)C)c(C)nn2-c2ccccc2)cc1 | inactive

Species: Cavia porcellus
Experiment: Inhibition of guinea pig FPR1
Settings: not given

Row | Compound | inhibition
37 | Cc1ccc(S(=O)(=O)Nc2c(C(=O)N[C@@H](C)C(C)(C)C)c(C)nn2-c2ccccc2)cc1 | inactive

Species: Rattus norvegicus
Experiment: Inhibition of rat FPR1
Settings: not given

Row | Compound | inhibition
38 | Cc1ccc(S(=O)(=O)Nc2c(C(=O)N[C@@H](C)C(C)(C)C)c(C)nn2-c2ccccc2)cc1 | inactive
